Experimental data from PubChem BioAssay (NCI).
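Growth conditions: 96-well plates. Treatment: test compound, 48 hours, 5 concentrations. Analysis: linear interpolation between bracketing concentrations; unreached endpoints set to highest concentration. TGI denotes the concentration required for complete inhibition of growth.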

Key:
Assay in all cases: NCI anticancer screen, dose series, 48 h
UO-31 renal = system: UO-31 renal
NCI-H522 lung = system: NCI-H522 lung
SN12C renal = system: SN12C renal
UACC-62 melanoma = system: UACC-62 melanoma
OVCAR-5 ovarian = system: OVCAR-5 ovarian
SK-OV-3 ovarian = system: SK-OV-3 ovarian
U251 CNS = system: U251 CNS
T-47D breast = system: T-47D breast
DU-145 prostate = system: DU-145 prostate
PC-3 prostate = system: PC-3 prostate

Row | SMILES | TGI (UO-31 renal) [µM] | TGI (NCI-H522 lung) [µM] | TGI (SN12C renal) [µM] | TGI (UACC-62 melanoma) [µM] | TGI (OVCAR-5 ovarian) [µM] | TGI (SK-OV-3 ovarian) [µM] | TGI (U251 CNS) [µM] | TGI (T-47D breast) [µM] | TGI (DU-145 prostate) [µM] | TGI (PC-3 prostate) [µM]
1 | CC1=NN(C(=O)c2ccccc2)C(=O)C1N=Nc1ccccc1C(=O)O (stereo unspecified) | 21.8 | 38 | > 100 | 22.9 | > 100 | > 100 | > 100 | – | – | –
2 | COc1cc(C2c3cc4c(cc3[C@@H](Nc3ccc(N5CCOCC5)cc3)C3COC(=O)[C@H]23)OCO4)cc(OC)c1O (stereo partly specified) | 5.16 | 3.4 | 2.12 | 3.91 | 22.1 | 5.38 | 1.89 | – | – | –
3 | Cn1nc2ccc3nccc(NCCNCCCl)c3c2n1 | > 100 | > 100 | > 100 | > 100 | > 100 | > 100 | – | – | – | –
4 | OC(C1CCCC1=N/N=C1/CCCC1C(O)(C(F)(F)Cl)C(F)(F)Cl)(C(F)(F)Cl)C(F)(F)Cl (stereo unspecified) | – | > 10 | > 10 | > 10 | > 10 | > 10 | > 10 | > 10 | > 10 | > 10
5 | FC(F)(F)c1nc2cc(SSc3cc4nc(C(F)(F)F)[nH]c4cc3Cl)c(Cl)cc2[nH]1 | – | > 100 | > 100 | > 100 | > 100 | > 100 | > 100 | – | > 100 | > 100
6 | N/C(=N\N=C/c1cc(Cl)cc(Cl)c1O)NO | 13.7 | – | 33.4 | 6.73 | 33.5 | 24.2 | > 100 | – | – | –
7 | COc1ccc2c(c1)Cc1c-2[nH]c2cc3c(cc2c1=O)OCO3 | 89 | 35.1 | > 100 | 22.8 | – | 95.8 | 23.5 | – | – | –
8 | O=C(OCc1c(-c2ccccc2)nn(-c2ccccc2)c1COC(=O)Oc1ccccc1)Oc1ccccc1 | – | > 100 | > 100 | > 100 | > 100 | > 100 | > 100 | > 100 | > 100 | > 100
9 | CC(C)=CCC[C@@H](C)C1=C(O)C(Nc2ccccc2F)=C(C)C(=O)C1=O | 47.7 | – | > 100 | > 79.3 | > 100 | > 100 | > 100 | 57.7 | > 67.8 | > 100
10 | CC(=O)C1C(=O)C(=O)N(c2ccc([N+](=O)[O-])cc2Cl)C1=O (stereo unspecified) | > 100 | > 100 | > 100 | > 100 | > 100 | > 100 | > 100 | – | > 100 | > 100
11 | CC(=N\N=C\c1ccccn1)/C(C)=N/N=C/c1ccccn1 | > 100 | > 100 | > 100 | – | > 100 | > 100 | > 100 | > 100 | > 100 | > 100
12 | CC[S+](C)c1ccc(-c2c3nc(c(-c4ccc([S+](C)CC)cc4)c4ccc([nH]4)c(-c4ccc([S+](C)CC)cc4)c4nc(c(-c5ccc([S+](C)CC)cc5)c5ccc2[nH]5)C=C4)C=C3)cc1 (stereo unspecified) | – | > 100 | 60.4 | 54.9 | 65.8 | 95.5 | > 100 | – | – | –
13 | CC(=O)O[C@@H]1CC2[C@@H](CCC3Cc4nc5c(nc4C[C@@]32C)CC2CC[C@@H]3C(CC[C@@]4(C)C3CC[C@@H]4C(C)CCCC(C)C)[C@@]2(C)C5)C2C[C@@H]3OC4(CCC(C)CO4)C(C)[C@@H]3[C@]21C (stereo partly specified) | – | > 100 | > 100 | 50.1 | > 100 | > 100 | > 100 | > 100 | > 100 | > 100
14 | C[n+]1c(-c2ccc(/C=N/Nc3n[nH]c(=S)n3N/N=C/c3ccc(-c4cn5ccccc5[n+]4C)cc3)cc2)cn2ccccc21 | > 100 | > 100 | > 100 | – | > 100 | > 100 | > 100 | > 100 | – | > 100
15 | Cc1cc(O)c(/C=N/C(=O)NN)c(=O)o1 | > 100 | > 100 | > 100 | > 100 | > 100 | > 100 | > 100 | – | > 100 | > 100
16 | CCOC(=O)CC(=Nc1cc(C)on1)N(CC)CC | > 100 | > 100 | > 100 | > 100 | > 100 | > 100 | > 100 | – | – | –
17 | CCOc1ccc(-n2c(=O)n3c(Nc4ccc(Cl)cc4)nc4c(c(=O)n(C)c(=O)n4C)n3c2=O)cc1 | > 100 | 32.8 | 74.6 | 46.3 | > 100 | – | > 100 | > 100 | > 100 | > 100
18 | Cc1noc(C)c1N=Nc1ccc2nonc2c1N | > 100 | – | > 100 | > 100 | > 100 | > 100 | – | > 100 | > 100 | > 100
